Data taken from patent US20210180080A1, “USE OF ALS MUTANT PROTEIN AND THE GENE THEREOF IN PLANT BREEDING BASED ON GENE EDITING TECHNOLOGY” (priority 2018, published 2021).

Experiments:
Type in all cases: in vivo
[1] = system: wild-type rice Nanjing 9108; test: herbicide resistance identification by spraying rice seedlings, wild type; settings: investigated 14 days later
Excerpt: (§1) The homozygous mutant T1 individual plants identified in Examples 2 and 3 were propagated, and the seeds were harvested in the artificial climate room of Nanjing Jiangsu Academy of Agricultural Sciences, which were the T2 generation; the T2 generation was continued to be propagated to obtain T3 Generation seeds. After accelerating the germination of the harvested T3 seeds, they were sown at a density of 450 kg hm^−2. When the rice growed to two leaves and one heart, the field water was drained and imazethapyr (aqueous agent, purchased from Nanjing Aijin Agrochemical Co., Ltd.) was sprayed at 210, 700, and 1400 g(a.i.) hm^−2 concentrations, respectively, with the water as the control group. After spraying for 24 h, the water was rehydrated, and the resistance was investigated 14 days later.
(§2) After accelerating germination of the T3 generation seeds in Example 4, they were sown at a density of 450 kg hm^−2. When the rice growed to two leaves and one heart, water in the field water was drained and Bailongtong (aqueous agent, purchased from Nanjing Aijin Agrochemical Co., Ltd.) was sprayed at 240, 2400, 4800 g(ai) hm^−2 concentration with water as the control group. After spraying for 24 h, the water was rehydrated, and the resistance was investigated 14 days later.

[2] = system: Mutant A51 rice (ALS amino acid 628 glycine to tryptophan); test: herbicide resistance identification by spraying rice seedlings, mutant; settings: investigated 14 days later
Excerpt: as §1, §2

[3] = system: transgenic lines A1-A58 of rice Nanjing 9108; test: herbicide screening of T1 generation transgenic lines; settings: 210 g (a.i.) hm^−2, investigated after 14 days
Method: The T0 generation plants were harvested as an individual plant, and the harvested seeds were germinated and sown at a density of 450 kg hm^−2. When the rice growed to two leaves and one heart, the water was drained from the field and imazethapyr (aqueous agent, purchased from Nanjing Aijin Agrochemical Co., Ltd.) was sprayed at 210 g (a.i.) hm^−2. Rehydrate after spraying for 24 h, and investigate resistance after 14 days. Plants with all withered or dead leaves were susceptibleness, while the healthy and viable plants were resistance. […] Therefore, the frequency of obtaining herbicide resistant strains in this study was 1.72%. According to reports, the mutation frequency of herbicide resistant rice lines obtained by chemical mutagenesis was 0.00003^˜0.006%.

[4] = 210 g(a.i.) hm^−2 sprayed at two leaves and one heart
[5] = 210 g(a.i.) hm^−2 sprayed at two leaves and one heart, listed as Imazethapyr

## CCc1cnc(C2=NC(C)(C(C)C)C(=O)N2)c(C(=O)O)c1 (stereo not drawn) [imazethapyr]
[1]; [4]
  resistance (survival) of wild-type plants after spraying: all died
[1]; [5]
  resistance (survival) of wild-type plants after spraying: appear to die in whole
[1]; 700 g(a.i.) hm^−2 sprayed at two leaves and one heart
  resistance (survival) of wild-type plants after spraying: all died
[1]; 1400 g(a.i.) hm^−2 sprayed at two leaves and one heart
  resistance (survival) of wild-type plants after spraying: all died
[2]; [4]
  resistance (survival) of mutant plants after spraying: could survive
[2]; [5]
  resistance (survival) of mutant plants after spraying: still grow and develop normally
[2]; 240 g(ai) hm^−2 sprayed at two leaves and one heart
  resistance (survival) of mutant plants after spraying: survived
[2]; 700 g(a.i.) hm^−2 sprayed at two leaves and one heart, T3 generation
  resistance (survival) of mutant plants after spraying: could survive
[2]; 1400 g(a.i.) hm^−2 sprayed at two leaves and one heart, T3 generation
  resistance (survival) of mutant plants after spraying: could survive
[2]; 2400 g(ai) hm^−2 sprayed at two leaves and one heart, T3 generation
  resistance (survival) of mutant plants after spraying: survived
[3]; A51 line, T1 generation
  resistance of A51 line plants after spraying: survived and showed herbicide resistance
[3]; the other 57 of lines A1-A58, T1 generation
  resistance of the other 57 lines after spraying: died
